Like-named read-outs stand apart in the source and are kept apart here.
Columns and labels:
IgM = conditions: in vivo; cited from earlier work
[1] = set-up: species or system human; conditions: in vivo
Protocol: (§1) ASCLEPIOS I and II are double-blind, double-dummy, active comparator-controlled, parallel-group, innovative, adaptive design, multicentre trials. Patients were randomised (1:1) to receive either ofatumumab 20 mg sc injections every 4 weeks (after an initial loading regimen of 20 mg sc doses on Days 1, 7 and 14) or teriflunomide 14 mg orally once daily, for up to 30 months. The studies have flexible durations, with termination occurring in the blinded core treatment epoch according to pre-specified criteria. Patients aged 18-55 years with an Expanded Disability Status Scale (EDSS) score (according to Kurtzke, Neurology. 1983, November; 33(11): 1444-52) of 0-5.5 at screening who experienced ≥1 relapse in the past year or ≥2 relapses in the past 2 years or a positive gadolinium-enhancing (Gd+) MRI scan during the year before randomisation were included.
(§2) Serum IgG/IgM levels were monitored at baseline, Week (W) 4, W12 and every 12 weeks, see FIG. 1. […] Reference is made to FIG. 1.

[2] = test system: total B cells (CD19+ CD45+), CD20+ CD3+ T cells; experiment: APLIOS Phase 2 study: B and T-cell subsets in blood by FACS; assay type: in vivo, human; conditions: 20 mg s.c.
Protocol: APLIOS was a 12-week, open-label, Phase 2 bioequivalence study. Patients received ofatumumab 20 mg (0.4 mL) s.c. loading doses on Days 1, 7 and 14, and maintenance doses every 4 weeks from Week 4 via a prefilled syringe or an autoinjector pen (SensoReady). Changes in B and T-cell subsets were analysed longitudinally in blood samples of a group of patients using fluorescence-activated cell sorting (FACS).

MS patients = conditions: cited from earlier work; for reduction in annualized relapse rate compared to teriflunomide: p<0.001
[3] = test system: urinary tract infections, B-cell subtypes; conditions: human, in vivo
Source text: A first group of patients is monitored after an ischemic stroke. A sub-group of the patients are expected to have difficulty with urinary leakage or are not able to empty their bladder completely because of muscle weakness. For these reasons, a catheter will be placed inside the bladder. However, there is an increased risk of urinary tract infections related to the use of a catheter. These infections will be treated with one of • Trimethoprim/sulfamethoxazole (Bactrim, Septra, others), • Fosfomycin (Monurol), • Nitrofurantoin (Macrodantin, Macrobid), • Cephalexin (Keflex) or • Ceftriaxone.
A second group of patients consists of ofatumumab-treated MS patients. A sub-group of the patients develops adverse events, including urinary tract infections. These infections are treated with one of • Trimethoprim/sulfamethoxazole (Bactrim, Septra, others), • Fosfomycin (Monurol), • Nitrofurantoin (Macrodantin, Macrobid), • Cephalexin (Keflex) or • Ceftriaxone.

[4] = test system: Immunoglobulin G, Plasma/Serum; set-up: species or system human; conditions: in vivo
Protocol: as §1, §2
• At each visit-window, only patients with a value at both Baseline and that visit-window are included.

[5] = test system: (total) IgG, B-cell subtypes; conditions: human, in vivo
Protocol: Ofatumumab is administered s.c. to RRMS patients. If injection-related reactions occurs, symptomatic treatment is provided. For patients who experienced pain, redness or itching, hydrocortisone cream is applied after the injection to help with itching, redness and swelling. A pain reliever is also be used.

[6] = test system: IgG, B-cell subtypes, adverse events; conditions: human, in vivo
Protocol: MS patients are treated with either ofatumumab or Ocrevus (ocrelizumab). Selected patients having psoriatic arthritis are monitored under a special study program. […] Some of them cannot take a disease-modifying antirheumatic drugs (DMARD) such as • Leflunomide (Arava), • Methotrexate (Otrexup, Rasuvo, Rheumatrex, Trexall) or • Sulfasalazine (Azulfidine).
Thus, they are treated with an immunosuppressant, i.e. one of • Azathioprine (Imuran, Azasan) or • Cyclosporine (Gengraf, Neoral, Sandimmune).

total immunoglobulins = conditions: over the controlled period of the studies, mainly driven by reduction in IgM; cited from earlier work
[7] = test system: serum immunoglobulin (IgG); conditions: cited from earlier work

rituximab
effect on IgM levels (IgM): depression of IgM levels

ofatumumab
incidence of infections [1]: Advantageous low incidence
depletion of CD20+ CD3+ T cells [2]: rapidly and potently depleted
depletion of memory B cells (CD19+ CD45+ CD27+) compared with naïve B cells [2]: more efficient depletion
median total B-cell levels ([2]; by Day 7 through Day 14 of the loading regimen, maintained for remaining study duration): ≤ 5 cells/μL
depletion in total B cells (CD19+ CD45+) ([2]; measured on Day 4 and Day 7): rapid and sustained depletion
reduction in annualized relapse rate compared to teriflunomide (MS patients; ASCLEPIOS I): 50.5%
reduction in annualized relapse rate compared to teriflunomide (MS patients; ASCLEPIOS II): 58.5%
suppression of gadolinium (Gd) T1 lesions compared to Aubagio (MS patients; in vivo): highly significant suppression
relative risk reduction in 6-month CDP versus Aubagio (MS patients; pre-specified pooled analyses, p=0.012): 32.5%
follicular B-cell subtype [3]: marked decrease
management of urinary tract infections [3]: No significant difference
marginal zone and germinal center B-cell subtypes [3]: less affected
IgG decrease as compared with teriflunomide-treated patients [4]: less pronounced and shorter
turning point at which the trend of decreasing IgG levels reverses [4]: 36 week
combined immunosuppression or toxicity of ofatumumab and hydrocortisone [5]: no evidence
follicular B-cell subtype [5]: marked decrease
marginal zone and germinal center B-cell subtypes [5]: less affected
level of (total) IgG in patients with injection-related reactions versus without reactions and hydrocortisone ([5]; sc): comparable
follicular B-cell subtype [6]: marked decrease
level of IgG versus Ocrevus-treated patients [6]: significantly higher
marginal zone and germinal center B-cell subtypes [6]: less affected

ocrelizumab
change in total immunoglobulins (total immunoglobulins): decrease in total immunoglobulins
reduction of IgG levels ([7]; after two years (96 weeks), pooled OPERA): approx. 5%
reduction in serum Ig levels, approximate mean rate ([7]; assessed over 5.5 years): 3-4 % per year
adverse events (e.g. infections) after treatment with the immunosuppressant [6]: significantly more adverse events
